Reference: patent US20110027354A1, “ANTI-PA[…]” (priority 2008, published 2011)
“Also recorded” adds a separate entry of the source.

How the values were obtained:
mice = test: Locomotor activity after repeated treatment with drug alone; type: in vivo; settings: repeated treatment i.p./day×7, selegiline or MPPE 2.5 or 5.0 mg/kg, MA 0.5 or 1.0 mg/kg; for locomotor activities: vs. saline
Procedure: Selegiline or […] was injected (2.5 or 5 mg/kg, i.p.) once a day for 7 consecutive days. Methamphetamine, a positive control, was also administered (0.5 or 1 mg/kg, i.p.) once a day for 7 days.
(§1) Locomotor activity measured for 30 min one day after the last MPTP administration using an automated video-tracking system (Noldus Information Technology, Wagenin, The Netherlands). Eight test boxes (40×40×30 cm high) were operated simultaneously by an IBM computer. Animals were studied individually during locomotion in each test box, where they were adapted for 5 min before starting the experiment. […] The distance traveled in cm by the animals in horizontal locomotor activity was analyzed. Data were collected and analyzed between 09:00 and 17:00 h (Kim et al., 2001).

MPTP-treated mice = test: MPTP-induced hypolocomotion (locomotor activity); type: in vivo; settings: for effect on MPTP-induced hypolocomotor activity: 2.5 mg/kg/i.p./day×9, vs. MPTP alone
Procedure: as §1

[1] = tested on: dopamine (DA), DOPAC and HVA in the striatum; test: HPLC analysis of striatal DA, DOPAC and HVA; type: in vivo, mice; settings: for effect on MPTP-induced increase of DA turnover rate / effect on MPTP-induced reduction of DOPAC / effect on MPTP-induced reduction of HVA / effect on MPTP-induced reduction of dopamine (DA): 2.5 mg/kg i.p., vs. MPTP alone; for effect on MPTP-induced reduction of dopamine (DA): 2.5 mg/kg; for levels of DA, DOPAC, HVA: drug alone (no MPTP)
Procedure: At 1 day after last MPTP injections mice were killed by cervical dislocation, the brains were removed and placed on an ice-cooled plate. Striatum was dissected and immediately frozen on dry ice and store at −70° C. until extraction. Brain regions obtained from each animal were weighed, ultrasonicated in 10% perchloric acid containing 10 ng/mg of the internal standard dihydroxybenzilamine, and centrifuged at 20,000 g for 10 min. The levels of DA and its metabolites 3,4-dihydroxyphenylacetic acid (DOPAC) and homovanillic acid (HVA) in brain tissue extracts were determined by HPLC coupled with electrochemical detection as described (Ali et al., 1994). Briefly, striatal tissues were sonicated in 0.2 M perchloric acid (20% W/V) containing the internal standard 3,4-dihydroxybenzylamine (10 mg wet tissue/ml) The homogenate was centrifuged and a 20-μl aliquot of the supernatant was injected into the HPLC equipped with a 3-μm C18 column. The mobile phase was comprised of 26 ml of acetonitrile, 21 ml of tetrahydrofuran and 960 ml of 0.15 M monochloroacetic acid (pH 3.0) containing 50 mg/l of EDTA and 200 mg/l of sodium octyl sulfate. The amount of DA, DOPAC and HVA were determined by comparison of peak height ratio of tissue sample with standards, and were expressed in nanograms per gram of wet weight of tissue.

[2] = tested on: tyrosine hydroxylase (TH); test: TH activity; type: in vivo, mice; settings: for TH activity: drug alone (no MPTP); for effect on MPTP-induced decrease of TH activity: one day after final MPTP, vs. MPTP alone
[3] = tested on: brain derived neurotrophic factor (BDNF); test: BDNF expression (western blot); type: in vivo, mice; settings: striatum; for effect on MPTP-induced reduction of BDNF expression: pre-treatment, vs. MPTP alone
Procedure: (§2) The western blot assays were performed as described previously (thong et al., 1997). Tissues were homogenized in lysis buffer, containing 200 mM Tris HCl (pH 6.8), 1% SDS, 5 mM ethylene glycol tetraacetic acid, 5 mM ethylenediaminetetraacetic acid, 10% glycerol, 1× phosphatase inhibitor cocktail I, 1× protease inhibitor cocktail. The supernatant fraction was subsequently centrifuged at 30,000×g for 30 min. The resulting pellet was resuspended in the sample buffer. Proteins (20-50 ug/lane) were separated by 6%, 8%, 10% or 15% sodium dodecyl sulfate-polyacrylamide gel electrophoresis and transferred onto the nitrocellulose membranes. Following transfer, the nitrocellulose membranes were preincubated with 5% non-fat milk and incubated overnight at 4° C. with anti-β-actin (Sigma, 1:50000), anti-TH (Chemicon, 1:5000), anti-TH phosphoser19 (Chemicon, 1:5000), anti-TH phosphoser31 (Chemicon, 1:500), anti-TH phosphoser40 (Chemicon, 1:500), anti-F 4/80 (Serotec, 1:500), anti-BDNF (Chemicon, 1:500), anti-GDNF (Santa-Cruz, 1:250), anti-Akt (Cell signaling, 1:1000), anti-phospho Akt ser 473 (Cell signaling, 1:1000), anti-PI3K (Cell signaling, 1:1000), anti-phospho PI3K (Cell signaling, 1:500) and anti-α-synuclein (BD Transduction, 1:500) antibody. After incubation with primary antibody, membranes were incubated with the secondary anti-rabbit IgG, Horseradish Peroxidase (1:1000 dilution, Amersham) or anti-mouse IgG, Horseradish Peroxidase (1:1000, Sigma), or anti-goat IgG, Horseradish Peroxidase (1:1000, Sigma) for 2 h, washed. Subsequently visualized with the Amersham ECL system (Amersham, Arlington Heights, Ill., USA).

phospho-Akt = test: Phosphorylation of Akt at Ser473 (western blot); type: in vivo, mice; settings: striatum; for effect on MPTP-induced decrease in phospho-Akt: vs. MPTP alone
Procedure: as §2

phospho-PI3K = test: Phosphorylation of PI3K (western blot); type: in vivo, mice; settings: striatum; for effect on MPTP-induced decrease in phospho-PI3K: vs. MPTP alone
Procedure: as §2

C#CCN(C)CCc1ccccc1 [MPPE, N-methyl-N-propynyl-2-phenylethylamine]
locomotor patterns (mice): comparable to those by saline; also recorded: did not show these behavioural side effects | locomotor activities (mice): did not significantly alter locomotor activities | attenuation of MPTP-induced hypolocomotor activity compared with selegiline (MPTP-treated mice; 2.5 mg/kg i.p., vs. selegiline+MPTP): more pronounced in the MPPE-pretreated mice than selegiline-pretreated case | effect on MPTP-induced hypolocomotor activity (MPTP-treated mice): significantly attenuated | effect on MPTP-induced increase of DA turnover rate [1]: attenuated | effect on MPTP-induced reduction of DOPAC [1]: attenuated | effect on MPTP-induced reduction of HVA [1]: attenuated | effect on MPTP-induced reduction of dopamine (DA) [1]: significantly attenuated | levels of DA, DOPAC, HVA [1]: did not show any significant effect | attenuation for DA level compared with selegiline ([1]; vs. selegiline+MPTP): more pronounced in the MPPE-treated mice | attenuation of DA turnover rate increase compared with selegiline ([1]; vs. selegiline+MPTP): more evident than by selegiline | TH activity [2]: did not show any significant effect | attenuation of TH activity decrease compared with selegiline ([2]; striatum and SN, vs. selegiline+MPTP): more effective | effect on MPTP-induced decrease of TH activity ([2]; striatum): attenuated | effect on MPTP-induced decrease of TH activity ([2]; substantia nigra (SN)): attenuated | effect on MPTP-induced reduction of BDNF expression [3]: significantly attenuated | enhancement of BDNF expression compared with selegiline ([3]; vs. selegiline+MPTP): more effective | effect on MPTP-induced decrease in phospho-Akt (phospho-Akt): significantly attenuated | attenuation of phospho-Akt decrease compared with selegiline (phospho-Akt; vs. selegiline+MPTP): more pronounced in MPPE-treated mice | effect on MPTP-induced decrease in phospho-PI3K (phospho-PI3K): significantly attenuated | attenuation of phospho-PI3K decrease compared with selegiline (phospho-PI3K; vs. selegiline+MPTP): more pronounced in MPPE-treated mice

C#CCN(C)[C@H](C)Cc1ccccc1 [selegiline, reference compound]
locomotor patterns (mice): circling locomotor patterns | locomotor patterns (mice; listed as Sel): typical circling locomotor patterns | locomotor activities (mice): significantly increased | effect on MPTP-induced hypolocomotor activity (MPTP-treated mice): significantly attenuated | effect on MPTP-induced increase of DA turnover rate [1]: attenuated | effect on MPTP-induced reduction of DOPAC [1]: attenuated | effect on MPTP-induced reduction of HVA [1]: attenuated | effect on MPTP-induced reduction of dopamine (DA) [1]: significantly attenuated | levels of DA, DOPAC, HVA [1]: did not show any significant effect | TH activity [2]: did not show any significant effect | effect on MPTP-induced decrease of TH activity ([2]; striatum): attenuated | effect on MPTP-induced decrease of TH activity ([2]; substantia nigra (SN)): attenuated | effect on MPTP-induced reduction of BDNF expression [3]: significantly attenuated | effect on MPTP-induced decrease in phospho-Akt (phospho-Akt): significantly attenuated | effect on MPTP-induced decrease in phospho-PI3K (phospho-PI3K): significantly attenuated
